Experimental data taken from US8147838B2, “Peptide” (priority 2005, dated 2012).
Residues, ends and D or L forms follow the SMILES beside them. No end group written: not given here.

How the values were obtained:
[1] = target: MHC class I allele A*0301 (A3) (Homo sapiens, UniProt P04439); test: iScore multi-parametric analysis, A*0301; type: binding; conditions: for iScore, MHC Class I Molecule A*0301: level of binding: >0.5, 0.25-0.5, <0.25; for iScore (iTopia), A*0301: integrates half-life and ED50
Procedure: (§1) Finally, multiparametric analysis is performed on the results from these assays and an iScore is generated. The iScore represents a measure of the overall quality of peptide-MHC binding, enabling candidate peptides to be ranked in order of binding quality and allowing rational prioritisation of peptides for functional cellular follow-up studies.
(§2) As part of the validation of the iTopia system, a panel of overlapping peptides derived from the CMV pp 65 protein were used and their binding properties for the A*0201 allele analysed. A number of T cell epitopes restricted by HLA A*0201 had already been identified (by more conventional methodologies) by other researchers for this protein. In the iTopia study, it was reported that an iScore of: >0.5 represented “good quality binding”; between 0.25 and 0.5 represented “medium quality binding”; and <0.25 represented “poor quality binding”. Six of the 20 peptides which gave a “good” iScore (>0.5) for A*0201, represented previously characterised CMV pp 65 A*0201 epitopes.
(§3) Each MHC class I allele has different binding properties and affinities for peptides which they bind. Therefore, information obtained with HLA A*0201 in which peptides are ranked as good, medium or poor binders using >0.5, 0.25-0.5 and <0.25 as thresholds is not necessarily transferable between alleles. Also, different proteins are likely to have distinct immunogenic profiles and the affinities between peptides and MHC class I molecules will be different between proteins. This may be particularly relevant in the case of self-antigens where immunogenicity is likely to be lower than in foreign proteins.
(§4) Multi-parametric analysis permits the integration of half-life and ED50 parameters in an integrated iScore. This reflects the capability of a peptide to reconstitute with MHC molecules in a stable complex, defining its overall level of binding i.e. the iScore value represents the overall quality of peptide-MHC binding and is used to rank candidate peptides as an indicator of functional relevance. The lead candidate epitopes for each allele are selected for cellular functional analysis to confirm their biological relevance.
(§5) The changes in gradient of the graphs in FIGS. 7 to 10 are indicated by a line which delineates the populations of iScores forming the basis of discrimination for further functional studies.

[2] = target: MHC class I allele B*0702 (B7) (Homo sapiens, UniProt P01889); test: iScore multi-parametric analysis, B*0702; conditions: level of binding: >0.5, 0.25-0.5, <0.25
Procedure: as §1
As part of the validation of the iTopia system, a panel of overlapping peptides derived from the CMV pp 65 protein were used and their binding properties for the A*0201 allele analysed. A number of T cell epitopes restricted by HLA A*0201 had already been identified (by more conventional methodologies) by other researchers for this protein. In the iTopia study, it was reported that an iScore of: >0.5 represented “good quality binding”; between 0.25 and 0.5 represented “medium quality binding”; and <0.25 represented “poor quality binding”.
as §4

[3] = target: MHC class I allele A*0201 (A2) (Homo sapiens, UniProt P04439, D140Y/D185E/D98H/E176V/E277Q/G131W/G231S/I119V/I121R/I166T/I218V/L300P/L318F/N151K/N90K/P208A/P217A/Q86G/Q94H/R138H/R169H/T345S); test: iScore multi-parametric analysis, A*0201; type: binding; conditions: level of binding: >0.5, 0.25-0.5, <0.25
Procedure: as §1, §2, §3, §4, §5

[4] = target: MHC class I allele A*0101 (A1) (Homo sapiens, UniProt P04439, A114D/A174V/A182V/D101N/D185E/E176A/E190D/L180R/Q94H/R68K/S129P/T187R/V100A/V91M/W191G); test: iScore multi-parametric analysis, A*0101; type: binding; conditions: for iScore, MHC Class I Molecule A*0101: level of binding: >0.5, 0.25-0.5, <0.25
Procedure: as §1, §2, §3, §4, §5

| Compound | iScore, MHC Class I Molecule A*0301 [1] | iScore, MHC Class I Molecule B*0702 [2] | iScore, MHC Class I Molecule A*0201 [3] | iScore, MHC Class I Molecule A*0101 [4] | iScore (iTopia), A*0301 [1] | iScore (iTopia), A*0101 ([4]; integrates half-life and ED50) |
| --- | --- | --- | --- | --- | --- | --- |
| C[C@H](NC(=O)[C@H](C)NC(=O)[C@@H]1CCCN1C(=O)CNC(=O)[C@H](CCCNC(=N)N)NC(=O)[C@H](CO)NC(=O)[C@H](CS)NC(=O)CNC(=O)CN)C(=O)O [Peptide 2] | 0 | 0.012 | 0.016 | 0 |  |  |
| CSCC[C@H](NC(=O)[C@H](CC(=O)O)NC(=O)[C@H](C)NC(=O)[C@H](CCSC)NC(=O)[C@H](Cc1c[nH]cn1)NC(=O)[C@H](CS)NC(=O)[C@H](CC(=O)O)NC(=O)[C@H](CS)NC(=O)[C@@H](N)C(C)C)C(=O)O [Peptide 149] (H-VCDCHMADM-OH; N-terminus and C-terminus assumed) | 0 | 0 | 0.061 | 0 |  |  |
| CC[C@H](C)[C@H](NC(=O)[C@H](C)NC(=O)CNC(=O)[C@@H](NC(=O)[C@@H](N)CC(C)C)[C@@H](C)CC)C(=O)N[C@@H](Cc1ccccc1)C(=O)N[C@@H](CC(C)C)C(=O)N[C@@H](CC(C)C)C(=O)N[C@H](C(=O)O)C(C)C [Peptide 183] | 0.07 | 0 | 1.897 | 0 |  |  |
| AARTVKCVN [Peptide 36] | 0 | 0.059 | 0.115 | 0 |  |  |
| ADLSPFAFS [Peptide 78] | 0 | 0 | 0.116 | 0 |  |  |
| AQLPSLRHL [Peptide 116] | 0 | 0 | 0.162 | 0 |  |  |
| ASVSAPSPL [Peptide 84] | 0 | 0.017 | 0.059 | 0 |  |  |
| DGRLRLARL [Peptide 7] | 0 | 0.038 | 0 | 0 |  |  |
| EHLPSLRQL [Peptide 70] | 0 | 0 | 0.046 | 0 |  |  |
| ELILNHIVP [Peptide 89] | 0 | 0 | 0.067 | 0 |  |  |
| EVVQGKDRL [Peptide 157] | 0 | 0 | 0.139 | 0 |  |  |
| GLPHIRVFL [Peptide 142] | 0.319 | 0.075 | 1.39 | 0 | 0.319 |  |
| GMVVAALLA [Peptide 99] | 0 | 0 | 0.384 | 0 |  |  |
| GSRLDEVRA [Peptide 64] | 0 | 0 | 0.13 | 0 |  |  |
| HFLYLPRDV [Peptide 111] | 0 | 0 | 0.227 | 0 |  |  |

Further lines, results first:

| iScore, MHC Class I Molecule A*0301 [1] | iScore, MHC Class I Molecule B*0702 [2] | iScore, MHC Class I Molecule A*0201 [3] | iScore, MHC Class I Molecule A*0101 [4] | iScore (iTopia), A*0301 [1] | iScore (iTopia), A*0101 ([4]; integrates half-life and ED50) | Compound |
| --- | --- | --- | --- | --- | --- | --- |
| 0.372 |  | 0.386 | 0 | 0.375 |  | CC(C)C[C@H](NC(=O)[C@H](Cc1ccc(O)cc1)NC(=O)[C@H](CC(C)C)NC(=O)[C@@H](NC(=O)[C@H](CC(C)C)NC(=O)[C@@H](N)CC(C)C)C(C)C)C(=O)N[C@@H](CC(N)=O)C(=O)N[C@@H](CCCNC(=N)N)C(=O)N[C@@H](CCCCN)C(=O)O [Peptide 186] |
| 0 | 0.094 | 0 | 0 |  |  | ADPRLTNLS [Peptide 204] |
| 0 | 0 | 0.023 | 0 |  |  | AGDGRLRLA [Peptide 6] |
| 0 | 0 | 0.104 | 0 |  |  | ALKVLHNGT [Peptide 135] |
| 0 | 0.176 | 0.041 | 0 |  |  | APFLASAVS [Peptide 23] |
| 0 | 0.101 | 0 | 0 |  |  | APSPLVELI [Peptide 86] |
| 0 | 0 | 0.062 | 0 |  |  | AVSAQPPLP [Peptide 26] |
| 0 | 0 | 0.18 | 0 |  |  | AYVRNLFLT [Peptide 46] |
| 0 | 0.093 | 0.05 | 0 |  |  | CVNRNLTEV [Peptide 39] |
| 0 | 0 | 0.096 | 0 |  |  | EKMRNRVLL [Peptide 164] |
| 0 | 0 | 0.075 | 0 |  |  | ELAALNLSG [Peptide 60] |
| 0 | 0 | 0.042 | 0 |  |  | FARRPPLAE [Peptide 56] |
| 0 | 0 | 0.051 | 0 |  |  | FEGMVVAAL [Peptide 98, FEGMVVAAL] |
| 0 | 0 | 0.134 | 0 |  |  | FLASAVSAQ [Peptide 24] |
| 0 | 0 | 0.116 | 0.023 |  |  | FSSSAPFLA [Peptide 21] |
| 0 | 0.359 | 0.222 | 0 |  |  | GAFARRPPL [Peptide 55] |
| 0 | 0 | 0.046 | 0 |  |  | GLRRLELAS [Peptide 106] |
| 0 | 0 | 0.044 | 0 |  |  | GWVSSSSPT [Peptide 14] |
| 0 | 0 | 0.821 | 0 |  |  | HMADMVTWL [Peptide 151] |
| 0.189 | 0 | 0.24 | 0.357 | 0.189 | 0.357 | HMEGYHYRY [Peptide 198] |
